Assay results: patent US11311513B2, “Methods, agents, and compositions for the treatment of acute myeloid leukemia” (UNIVERSITY OF CINCINNATI, priority 2017, dated 2022)

Assays:
Assay type in all cases: cell-based
[1] = system: THP-1 NSC-370284-resistant clones; test: Viability of THP-1 NSC-370284-resistant clones with chemotherapy drugs; conditions: 3 resistant clones; 48 hours
Procedure: FIG. 6. […] (a) NSC-370284-resistant AML cells are sensitive to DNR. Three of the THP-1 NSC-370284-resistant clones (DRC-1-3) and the parental control were treated with DNR at indicated doses. Cell viability was tested 48 hours after the treatments. […] Relative cell viability at 48 hours post drug treatment is shown. Error bar indicates SD of triplicate experiments. (d) Synergistic therapy of NSC-370284 or UC-514321 in combination with standard chemotherapy. Secondary BMT recipient mice were transplanted with primary MLL-AF9 leukemic BM cells. […] 5-9 mice were included in each group. Kaplan-Meier curves are shown. The P values were determined by log-rank test. (e) Wright-Giemsa staining of mouse PB and BM, or H&E staining of mouse spleen and liver of MLL-AF9 secondary BMT recipients treated with “5+3” alone, or combinational therapy.
Long-term treatment with a drug may cause drug resistance in patients, and thus combinatory therapy is often required. To treat AML cells that have gained resistance to inhibitors, the effects of a set of first-line AML chemotherapy drugs including daunorubicin (DNR), cytarabine (AraC), all-trans retinoic acid (ATRA), azacytidine (AZA), and decitabine (DAC) on the viability of parental THP-1 cells and three NSC-370284-resistant clones were investigated (FIG. 6a and FIG. 18a-d).

[2] = system: Tet1 deficient mouse BM progenitor cells transduced with MLL-AF9; test: Viability of MLL-AF9-transduced Tet1 deficient BM progenitor cells; conditions: 48 hrs; 200 nM (FIG. 13)
Procedure: FIG. 5. […] Gene expression levels are shown. […] ChIP-qPCR assay was carried out 48 hrs after drug treatment. Enrichment of STAT3, STAT5, or IgG at the TET1 promoter region and other regions are shown. […] BM progenitor cells of wild-type or Tet1^−/− mice were retrovirally transduced with MLL-AF9. […] Relative cell viabilities are shown. (m) Cre-Tet1f mouse BM progenitor cells were retrovirally transduced with MLL-AF9. […] Relative cell viability is shown. (n-o) THP-1 (n) and MONOMAC-6 (o) cells were infected with lentivirus of pLenti-puro vector-based Tet1 construct. […] Relative cell viability is shown. *, P<0.05; **, P<0.01, two-tailed t-test. Error bar indicates SD of triplicate experiments.
FIG. 13. […] (a-d) BM progenitor cells of wild-type or Tet1^−/− mice were retrovirally transduced with MLL-AF9. Infected cells were treated with 200 nM JAK/STAT inhibitors individually, including Pacritinib (a), KW-2449 (b), Stattic (c) or sc-355979 (d), for 48 hrs. Relative cell viabilities are shown. (e) Cre-Tet1^fl/fl mouse BM progenitor cells were retrovirally transduced with MLL-AF9. […] Cell viabilities (normalized to non-induced Cre-Tet1^fl/fl treated with DMSO control) are shown. ‘K, P<0.05; ‘K‘K, P<0.01, two-tailed t-test
siRNAs were transfected into MONOMAC-6 cells with Cell Line Nucleofector Kit V following program T-037, using the Amaxa Nucleofector Technology (Amaxa Biosystems, Berlin, Germany). Experiments were performed 48 h after transfection. Retrovirus infection of mouse BM progenitor cells were conducted as described previously with some modifications. Briefly, retrovirus vectors were co-transfected with pCL-Eco packaging vector (IMGENEX, San Diego, Calif.) into HEK293T cells using Effectene Transfection Reagent (Qiagen, Valencia, Calif.) to produce retrovirus. BM cells were harvested from a cohort of 4- to 6-week-old C57BL/6, Tet1^−/−, or Cre-Tet1^fl/fl donor mice after five days of 5-fluorouracil (5-FU) treatment, and primitive hematopoietic progenitor cells were enriched with Mouse Lineage Cell Depletion Kit (Miltenyi Biotec Inc., Auburn, Calif.). An aliquot of enriched hematopoietic progenitor cells was added to retroviral supernatant together with polybrene in cell culture plates, which were centrifuged at 2,000 g for 2 hours at 32° C. (i.e., spinoculation) and then the medium was replaced with fresh media and incubated for 20 hours at 37° C. Next day, the same procedure was repeated once. Infected cells were grown in RPMI 1640 medium containing 10 ng/mL murine recombinant IL-3, 10 ng/mL IL-6, 100 ng/mL murine recombinant SCF (R&D Systems, Minneapolis, Minn.), along with 1.0 mg/ml of G418. Experiments were performed 7 days after infection.
(§1) These experiments were conducted as described previously (Jiang, X., et al., Blockade of miR-150 Maturation by MLL-Fusion/MYC/LIN-28 Is Required for MLL-Associated Leukemia, Cancer Cell 22:524-35 (2012); Li, Z., et al., miR-196b directly targets both HOXA9/MEIS1 oncogenes and FAS tumour suppressor in MLL-rearranged leukaemia, Nat Commun 2:688 (2012)) with ApoLive-Glo Multiplex Assay Kit, or CellTiter 96 AQueous Non-Radioactive Cell Proliferation Assay Kit (Promega, Madison, Wis.).

[3] = system: TET1-high AML (including MONOMAC-6, THP-1, and KASUMI-1) cells; test: MTS viability of AML cell lines versus JAK/STAT inhibitors; conditions: MTS 48 hrs; maximum concentration tested 500 nM
Procedure: FIG. 4. […] (a) Structures of NSC-370284 and UC-514321. […] Cells were treated with drugs at indicated doses. Cell viability was detected by MTS 48 hrs post-treatment. Error bar indicates SD of triplicate experiments. […] Secondary BMT recipient mice were transplanted with primary leukemic BM cells with MLL-AF9 (f) or AML-ETO9a (g). […] Kaplan-Meier curves are shown. The P values were determined by log-rank test. […] Secondary BMT recipient mice were transplanted with primary leukemic BM cells with MLL-AF10 or FLT3-ITD/NPM1^mut. […] Kaplan-Meier curves are shown. The P values were determined by log-rank test. (j) Wright-Giemsa staining of mouse PB and BM, or H&E staining of mouse spleen and liver of MLL-AF9 AML secondary BMT recipients with or without drug treatment.
as §1

Compound	sensitivity of drug-resistant clones relative to parental THP-1 control [1]	difference in cell viability between wild-type and Tet1 deficient cells [2]	inhibitory effects on the viability of these AML cells [3]
COc1cccc2c1C(=O)c1c(O)c3c(c(O)c1C2=O)C[C@@](O)(C(C)=O)C[C@@H]3O[C@H]1C[C@H](N)[C@H](O)[C@H](C)O1 [DNR, daunorubicin]	much more sensitive		
O=C(c1ccc(/C=C/c2n[nH]c3ccccc23)cc1)N1CCNCC1 [KW-2449, reference compound]		no significant differences	
C1=C/COCc2cc(ccc2OCCN2CCCC2)Nc2nccc(n2)-c2cccc(c2)COC/1 [Pacritinib, reference compound]		no significant differences	
O=[N+]([O-])c1ccc2c(c1)S(=O)(=O)C=C2 [Stattic, reference compound]		no significant differences	did not show significant inhibitory effects
O=C(NN=Cc1coc2ccccc2c1=O)c1cccnc1 [sc-355979, reference compound]		no significant differences	did not show significant inhibitory effects
